Experimental data as given in ChEMBL document CHEMBL5360649, “Potential Broad-Spectrum Antimicrobial, Wound Healing, and Disinfectant Cationic Peptide Crafted from Snake Venom” (J Med Chem, 2023).
The source made the active and inactive calls. No cut-off for these calls is given here.

What was measured:
[1] = Stability in human serum assessed as intact peptide remaining at 1 mM measured after 24 hrs by HPLC analysis; type: ADME, cell-free; conditions: read-out: Stability
[2] = Stability in human serum assessed as intact peptide remaining at 1 mM measured after 12 hrs by HPLC analysis; type: ADME, cell-free; conditions: read-out: Stability
[3] = test system: Klebsiella pneumoniae; assay: Antibacterial activity against Klebsiella pneumoniae ATCC BAA-1705 assessed as inhibition of bacterial growth incubated for 24 hrs by CLSI protocol based microdilution method; type: functional
[4] = test system: Staphylococcus aureus; assay: Bactericidal activity against patient-derived Staphylococcus aureus assessed as reduction in bacterial growth incubated for 24 hrs by Mueller Hinton Agar based plate analysis; type: functional
[5] = test system: PBMC; assay: Effect on cell viability in human PBMC assessed as increase in cell number by measuring rise in cell proliferation percentage at 12.5 uM measured after 12 hrs by lymphocyte proliferation assay (12 hrs incubated Rvb = 478.774%); type: toxicity, cell-based
[6] = Cytotoxicity against human WI-38 cells assessed as cell viability at 12.5 uM incubated for 24 hrs by MTT assay relative to control; type: toxicity, cell-based; conditions: read-out: Activity
[7] = Cytotoxicity against mouse RAW264.7 cells assessed as cell viability at 12.5 uM incubated for 24 hrs by MTT assay relative to control; type: toxicity, cell-based; conditions: read-out: Activity
[8] = Cytotoxicity against human A549 cells assessed as cell viability at 12.5 uM incubated for 24 hrs by MTT assay relative to control; type: toxicity, cell-based; conditions: read-out: Activity
[9] = test system: Erythrocyte; assay: Cytotoxicity against human RBC assessed as less damage to cells at 12.5 to 25 uM by SEM analysis; type: toxicity, cell-based; conditions: dose 12.5-25 µM
[10] = test system: U-937; assay: Immunomodulatory activity in human U-937 cells assessed as effect on IL-6 expression level at 5 to 10 uM incubated for 24 hrs by radioimmunoprecipitation based dot-plot analysis; type: functional, cell-based; conditions: dose 5-10 µM
[11] = test system: U-937; assay: Immunomodulatory activity in human U-937 cells assessed as effect on TNF-alpha expression level at 5 to 10 uM incubated for 24 hrs by radioimmunoprecipitation based dot-plot analysis; type: functional, cell-based; conditions: dose 5-10 µM
[12] = test system: Staphylococcus aureus; assay: Induction of morphological changes in methicillin-resistant Staphylococcus aureus at MIC concentration incubated for 6 hrs by AFM analysis; type: functional, organism-based
[13] = test system: Klebsiella pneumoniae; assay: Induction of morphological changes in carbapenem resistant Klebsiella pneumoniae ATCC BAA-1705 assessed as cellular destruction at MIC concentration incubated for 6 hrs by AFM analysis; type: functional, organism-based
[14] = test system: Klebsiella pneumoniae; assay: Induction of morphological changes in carbapenem resistant Klebsiella pneumoniae ATCC BAA-1705 at MIC concentration incubated for 6 hrs by SEM analysis; type: functional, organism-based
[15] = test system: Pseudomonas aeruginosa; assay: Induction of morphological changes in Pseudomonas aeruginosa assessed as cellular destruction at MIC concentration incubated for 6 hrs by SEM analysis; type: functional, organism-based
[16] = test system: Staphylococcus aureus; assay: Induction of morphological changes in methicillin resistant Staphylococcus aureus assessed as decrease in legible cells at MIC concentration incubated for 6 hrs by AFM analysis; type: functional, organism-based
[17] = test system: Pseudomonas aeruginosa; assay: Induction of morphological changes in Pseudomonas aeruginosa assessed as inhibition of cell division by measuring elongated cells at MIC concentration incubated for 60 mins by SEM analysis; type: functional, organism-based
[18] = test system: Klebsiella pneumoniae; assay: Induction of morphological changes in carbapenem resistant Klebsiella pneumoniae ATCC BAA-1705 assessed as cellular defacement at MIC concentration incubated for 60 mins by SEM analysis; type: functional, organism-based
[19] = test system: Cell membrane; assay: Induction of outer membrane permeabilization in Pseudomonas aeruginosa at 0.5 to 1 times of MIC incubated for 5 to 20 mins by fluorescence based NPN uptake assay; type: subcellular; conditions: time 5-20 min
[20] = test system: Staphylococcus aureus; assay: Antibacterial activity against methicillin-resistant Staphylococcus aureus assessed as induction of cellular damage at MIC concentration incubated for 30 mins by SYTO9/PI staining based fluorescence microscopic analysis; type: functional, organism-based
[21] = test system: Escherichia coli; assay: Antibacterial activity against Escherichia coli assessed as induction of cellular damage at MIC concentration incubated for 30 mins by SYTO9/PI staining based fluorescence microscopic analysis; type: functional, organism-based
[22] = test system: Klebsiella pneumoniae; assay: Antibacterial activity against Klebsiella pneumoniae assessed as induction of cellular damage at MIC concentration incubated for 30 mins by SYTO9/PI staining based fluorescence microscopic analysis; type: functional, organism-based
[23] = test system: Escherichia coli; assay: Antibacterial activity against Escherichia coli assessed as cell division block by measuring cellular elongation at 0.5 to 1 times of MIC incubated for 30 mins by SYTO9/PI staining based fluorescence microscopic analysis; type: functional, organism-based
[24] = test system: Klebsiella pneumoniae; assay: Antibiofilm activity against Klebsiella pneumoniae assessed as clearance of preformed biofilm at 0.5 times of MIC incubated for 24 hrs by CV staining based analysis relative to control; type: functional
[25] = test system: Staphylococcus aureus; assay: Antibiofilm activity in methicillin-resistant Staphylococcus aureus assessed as biofilm disintegration at 0.5 to 1 times of MIC incubated for 24 hrs by Congo red dye based fluorescence analysis; type: functional, organism-based
[26] = test system: Klebsiella pneumoniae; assay: Antibiofilm activity against Klebsiella pneumoniae assessed as biofilm disintegration at 0.5 to 1 times of MIC incubated for 24 hrs by Congo red dye based fluorescence analysis; type: functional, organism-based
[27] = test system: Staphylococcus aureus; assay: Antibiofilm activity against methicillin-resistant Staphylococcus aureus assessed as increase in dead cell proportion at MIC incubated overnight by SYTO9/PI staining based fluorescence analysis; type: functional, organism-based
[28] = test system: Klebsiella pneumoniae; assay: Antibiofilm activity against Klebsiella pneumoniae assessed as increase in dead cell proportion at MIC incubated overnight by SYTO9/PI staining based fluorescence analysis; type: functional, organism-based
[29] = test system: Staphylococcus aureus; assay: Antibiofilm activity against methicillin-resistant Staphylococcus aureus assessed as increase in dead cell proportion at 0.5 times of MIC incubated overnight by SYTO9/PI staining based fluorescence analysis; type: functional, organism-based
[30] = test system: Klebsiella pneumoniae; assay: Antibiofilm activity against Klebsiella pneumoniae assessed as increase in dead cell proportion at 0.5 times of MIC incubated overnight by SYTO9/PI staining based fluorescence analysis; type: functional, organism-based
[31] = test system: Klebsiella pneumoniae; assay: Antibiofilm activity against preformed biofilm in Klebsiella pneumoniae assessed as decrease in cell viability at 0.5 times of MIC incubated overnight by MTT assay relative to control; type: functional
[32] = test system: NMDF; assay: Induction of cell migration in NMDF cells at 10 uM incubated for 24 hrs by wound healing scratch/mirgation assay; type: functional, cell-based; conditions: Mus musculus
[33] = test system: NMDF; assay: Induction of cell migration in NMDF cells at 5 uM incubated for 24 hrs by wound healing scratch/mirgation assay; type: functional, cell-based; conditions: Mus musculus
[34] = species on record: Rattus norvegicus; assay: Induction of wound healing in surgically-induced Albino Wistar rat wound model assessed as proper formation of sebaceous gland at 10 uM measured after 11 days by H&E staining based analysis; type: functional; conditions: time 11.0 day
[35] = species on record: Rattus norvegicus; assay: Induction of wound healing in surgically-induced Albino Wistar rat wound model assessed as proper formation of blood vessels at 10 uM measured after 11 days by H&E staining based analysis; type: functional; conditions: time 11.0 day
[36] = species on record: Rattus norvegicus; assay: Induction of wound healing in surgically-induced Albino Wistar rat wound model inoculated with methicillin-resistant Staphylococcus aureus assessed as reduction in inflammatory cell infiltration at 10 uM measured after 11 days by H&E staining based analysis; type: functional; conditions: time 11.0 day
[37] = species on record: Rattus norvegicus; assay: Induction of wound healing in surgically-induced Albino Wistar rat wound model inoculated with methicillin-resistant Staphylococcus aureus assessed as sebaceous gland formation at 10 uM measured after 11 days by H&E staining based analysis; type: functional; conditions: time 11.0 day
[38] = species on record: Rattus norvegicus; assay: Induction of wound healing in surgically-induced Albino Wistar rat wound model assessed as reduction in inflammatory signs at 10 uM measured after 11 days by H&E staining based analysis; type: functional; conditions: time 11.0 day

H-FLPIIKWVKKFFWRWR-OH
remaining at 24 h, 1000 µM [1]: 47.1% | remaining at 12 h, 1000 µM [2]: 54.5% | MIC [3]: 8 µM | MBC [4]: 8 µM | Activity [5]: 55.188% | viability at 24 h, 12.5 µM [6]: 91.5% | viability at 24 h, 12.5 µM [7]: > 90% | viability at 24 h, 12.5 µM [8]: 74.3% | Activity [9]: Non-Toxic | Activity [10]: Active | Activity [11]: Active | Activity [12]: Active | Activity [13]: Active | Activity [14]: Active | Activity [15]: Active | Activity [16]: Active | Activity [17]: Active | Activity [18]: Active | Activity [19]: Active | Activity [20]: Active | Activity [21]: Active | Activity [22]: Active | Activity [23]: Active | Activity [24]: ~52% | Activity [25]: Active | Activity [26]: Active | Activity [27]: Active | Activity [28]: Active | Activity [29]: inactive | Activity [30]: inactive | Activity [31]: 79.96% | Activity [32]: Active | Activity [33]: inactive | Activity [34]: Active | Activity [35]: Active | Activity [36]: Active | Activity [37]: Active | Activity [38]: Active
